Experimental data taken from patent publication US11754548B2, “Method of in vitro cellular assay, cell circuit board, and method of manufacturing cell circuit board” (RICOH COMPANY, LTD., priority 2019, dated 2023).

Legend:
[1] = test system: cell population A (Mixed Neurons from Healthy Donor) and cell population B (GABAergic Neurons from Healthy Donor), neural cells derived from iPS cells; experiment: Action potential measurement (MEA, MED64 system) of the cell circuit board with cell populations A and B connected via neurites, and after cutting the neurites, treated with drug (Example 2); type: cell-based
Experimental: Two types of frozen neural cell which are derived from iPS cells (GABAergic Neurons from Healthy Donor and Mixed Neurons from Healthy Donor) and are commercially available from Elixirgen Scientific were suspended in a medium and plated on a board including an electrode of a multi-electrode array (MEA; SCREEN Holdings Co., Ltd.) coated with 0.05% polyethyleneimine ([…]; manufactured by Sigma) and a 80 μg/mL laminin solution (manufactured by Sigma) in advance. Synchronous firing of the neural cells was checked to be induced by formation of a network after 3 weeks of the culture. A cell population containing more excitable cells and presenting synchronous firing in a short cycle was designated as a cell population A, and a cell population containing many suppressor cells and presenting synchronous firing in a long cycle was designated as a cell population B.
FIG. 4 is a diagram illustrating a test flow in Example 1. First, a board 5 to which partition members 8a and 8b, which are made of dimethylpolysiloxane (PDMS), and frame members 9a and 9b are respectively bonded was prepared so that a region including the cell population A (10) and a region including the cell population B (20) are separated. Next, on the board 5, two types of cell suspension each including the cell population A (10) and the cell population B (20) having different electrophysiological behaviors which were obtained in “1.” were plated in the respective regions surrounded by the frame members 9a and 9b while not mixing these cell populations. In a case where an area of the region was as large as more than 10 mm^2, respective cell suspensions were plated using a micropipette. In a case where an area was as small as 10 mm^2 or less, plating could not be performed manually, and therefore respective cell suspensions were plated using an ink jet bioprinter for cell discharge. […]
The cell population A and the cell population B were cultured for 4 weeks in a state in which they were connected via neurites (a state in which a neural network was formed), and action potentials detectable from the electrodes were measured for 5 minutes with an MED64 system (SCREEN Holdings Co., Ltd.). An electrical waveform was analyzed using software, BurstScope included in the MED64 system. […]
For respective cell populations in “2.” which were treated with the drug, action potentials detectable from the electrodes were measured for 5 minutes with the MED64 system. […]
The neurites between the cell population A and the cell population B were then cut as illustrated in FIG. 4. After cutting, the cells were cultured for 10 minutes in a CO2 incubator and stabilized, and then the action potential was measured again. […]

[2] = test system: cell population A (iCell GABANeurons) and cell population B (GABAergic Neurons from Healthy Donor), neural cells derived from iPS cells; experiment: Action potential measurement (MEA, MED64 system) of the cell circuit board including an inhibitory GABAergic cell population, connected via neurites, treated with drug (Example 4); type: cell-based; conditions: 30 μM final concentration, 10 minutes at 37° C.; populations connected via neurites; FIG. 18
Experimental: A cell circuit board in which the cell population A and the cell population B were disposed to be spaced apart from each other on the board was prepared using the same method as in Example 1 except that frozen neural cells which are derived from iPS cells (iCell GABANeurons) and are commercially available from Cellular Dynamics International were used as the cell population A, and the same cells as in Example 1 (GABAergic Neurons from Healthy Donor) were used as the cell population B.
Using the same method as in Example 1, at the fourth week of the culture, action potentials detectable from the electrodes were measured for 5 minutes in a state in which the cell population A and the cell population B were connected via neurites. A raster plot that visualizes synchronized firing patterns is illustrated in FIG. 17. In addition, FIG. 16 illustrates a raster plot for visualizing firing patterns of respective cell populations cultured by plating on a board alone.
The mixture was allowed to stand for 10 minutes in a CO2 incubator at 37° C.
For respective cell populations in the above section “3.” which were treated with the drug, action potentials detectable from the electrodes were measured for 5 minutes with the MED64 system. The results are illustrated in FIG. 18.

[3] = 10 μM final concentration, 10 minutes at 37° C., populations A and B connected via neurites, FIG. 8
[4] = 10 μM, neurites between A and B cut, 10 minutes stabilization, FIG. 9

Compound	firing pattern of the cell population A (short-cycle firing) [1, 3]	synchronization of the firing pattern of cell population A with cell population B [1, 3]	firing pattern of the cell population B after cutting the neurites [1, 4]	synchronous firing period of the cell population A after cutting the neurites [1, 4]	cycle of the synchronous firing pattern compared with before drug treatment [2]	synchronization between cell population A and cell population B [2]
N[C@H](CCCP(=O)(O)O)C(=O)O [D-AP5, D-(−)-2-amino-5-phosphonopentanoic acid]	firing in a short cycle disappeared	became a firing pattern synchronized in the form of the same cycle and peak as those of the cell population B	does not change	greatly prolonged		
picrotoxin					significantly shorter cycle than that before the drug treatment	remained synchronized
